What was measured:
[1] = human, microsomes
HD-MB03 = test: cells; settings: Homo sapiens, HD-MB03, 72 h
D283 Med = test: cells; settings: Homo sapiens, 72 h
cells = settings: Homo sapiens, NALM16, 72 h
in vitro [2] = settings: human, plasma
in vitro [3] = settings: human, plasma; remark: listed apart in the source
[4] = molecular target: T1, Bromodomain-containing protein 2 (Homo sapiens, UniProt P25440); test: Inhibition of BRD2 BD1 (unknown origin) by TR-FRET assay
[5] = molecular target: T1, Bromodomain-containing protein 2; test: Inhibition of BRD2 BD2 (unknown origin) by TR-FRET assay
MOLM-13 = test: cells; settings: Homo sapiens, MOLM-13, 72 h
MV4-11 = test: cells; settings: Homo sapiens, MV4-11, 72 h
[6] = molecular target: T2, Bromodomain-containing protein 4 (Homo sapiens, UniProt O60885)
[7] = molecular target: T2, Bromodomain-containing protein 4; remark: listed apart in the source

T1 sequence (P25440 whole entry): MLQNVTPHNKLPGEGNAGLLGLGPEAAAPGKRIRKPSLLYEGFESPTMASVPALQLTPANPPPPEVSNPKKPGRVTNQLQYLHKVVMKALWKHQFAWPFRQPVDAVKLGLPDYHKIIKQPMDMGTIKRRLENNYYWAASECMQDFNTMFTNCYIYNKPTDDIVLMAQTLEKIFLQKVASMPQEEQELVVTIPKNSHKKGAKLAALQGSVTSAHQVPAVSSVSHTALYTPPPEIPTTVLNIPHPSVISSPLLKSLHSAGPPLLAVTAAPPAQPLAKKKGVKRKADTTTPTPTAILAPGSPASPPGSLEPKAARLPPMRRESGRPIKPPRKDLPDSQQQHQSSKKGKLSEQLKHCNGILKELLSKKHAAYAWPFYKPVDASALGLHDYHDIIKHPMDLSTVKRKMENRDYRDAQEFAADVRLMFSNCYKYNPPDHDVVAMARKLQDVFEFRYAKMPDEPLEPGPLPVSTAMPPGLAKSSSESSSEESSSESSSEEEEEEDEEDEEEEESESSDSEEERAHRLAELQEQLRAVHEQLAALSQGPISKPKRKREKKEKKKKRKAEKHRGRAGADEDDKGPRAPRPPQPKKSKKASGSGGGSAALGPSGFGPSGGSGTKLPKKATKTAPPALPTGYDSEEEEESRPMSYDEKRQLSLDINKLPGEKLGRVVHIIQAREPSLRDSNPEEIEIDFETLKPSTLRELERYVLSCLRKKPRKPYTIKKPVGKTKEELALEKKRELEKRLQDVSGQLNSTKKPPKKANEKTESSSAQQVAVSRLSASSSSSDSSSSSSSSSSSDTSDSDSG

| SMILES | t1/2 [1] [h] | IC50 (HD-MB03) [nM] | IC50 (D283 Med) [nM] | IC50 (cells) [nM] | half-life at 48 h (in vitro [2]) [h] | fraction unbound (in vitro [3]) | IC50 [4] [nM] | IC50 [5] [nM] | IC50 (MOLM-13) [nM] | IC50 (MV4-11) [nM] | IC50 [6] [nM] | IC50 [7] [nM] |
| --- | --- | --- | --- | --- | --- | --- | --- | --- | --- | --- | --- | --- |
| Cc1sc2c(c1C)C(c1ccc(Cl)cc1)=N[C@@H](CC(=O)OC(C)(C)C)c1nnc(C)n1-2 | 0.4 | 90 | 60 | 18 | > 100 | 0.008 |  |  |  |  |  |  |
| Cc1sc2c(c1C)C(c1ccc(Cl)cc1)=N[C@@H](CC(=O)NCCc1c[nH]c3ccccc13)c1nnc(C)n1-2 |  | 254 |  | 172 |  |  | 252 | 50 | 318 | 182 |  |  |
| COC(=O)[C@H](Cc1c[nH]cn1)NC(=O)C[C@@H]1N=C(c2ccc(Cl)cc2)c2c(sc(C)c2C)-n2c(C)nnc21 |  |  | 2930 | 791 |  |  | 32 | 9 | 200 | 1140 | 34 | 6 |
| Cc1sc2c(c1C)C(c1ccc(Cl)cc1)=N[C@@H](CC(=O)NCCO)c1nnc(C)n1-2 |  | 42 | 413 | 7 |  |  |  |  | 8 |  |  |  |
| Cc1sc2c(c1C)C(c1ccc(Cl)cc1)=N[C@@H](CC(=O)NCc1ccccc1)c1nnc(C)n1-2 |  | 619 |  | 452 | > 100 |  | 21 | 0.2 | 385 |  |  | 0.3 |
| Cc1sc2c(c1C)C(c1ccc(Cl)cc1)=N[C@@H](CC(=O)NCc1cn(C)cn1)c1nnc(C)n1-2 |  | 358 | 789 | 93 | > 100 |  | 17 | 3 | 52 | 143 | 82 | 0.6 |
| Cc1sc2c(c1C)C(c1ccc(Cl)cc1)=N[C@@H](CC(=O)NCc1cn(C)nn1)c1nnc(C)n1-2 |  | 40 |  | 14 | > 100 |  | 639 |  | 11 | 59 | 1410 | 26 |
| Cc1sc2c(c1C)C(c1ccc(Cl)cc1)=N[C@@H](CC(=O)NCc1c[nH]nn1)c1nnc(C)n1-2 |  | 3 | 964 | 7 | > 100 |  | 8 |  | 3 | 253 | 79 | 1 |

From ChEMBL document CHEMBL5346911, “From PROTAC to inhibitor: Structure-guided discovery of potent and orally bioavailable BET inhibitors” (Eur J Med Chem, 2023)
